Test results reported in a melting point compilation (Tetko et al.; mined from patent text by program, amines drawn as free bases though some values may be those of a salt).

**Q.** With `COC(=O)c1ccc(COc2ccc3cc(-c4ccc(-c5ccccc5)n4Cc4ccc(C(F)(F)F)cc4)ccc3c2)cc1` as the compound, how does the melting point read?
**A.** 154 to 155 °C

**Q.** Which melting point does the source give for `CCCCOc1ccc(F)cc1OCCN1C(=O)c2ccccc2C1=O` here?
**A.** 107 to 108 °C

**Q.** With `CCCC(c1ccncc1)n1ccc2ccccc21` (configuration not stated) as the compound, how does the melting point read?
**A.** 91 to 94 °C

**Q.** Which melting point does the source give for `CC1NC(=NO)OC1c1ccccc1` (configuration not stated) here?
**A.** 145 to 148 °C

**Q.** For `Cc1nn(-c2ccc(C#N)c(Cl)c2)c(C)c1Cc1ccc(C(=O)NC(C)(C)C)cc1`, which melting point is on record?
**A.** 135 to 136 °C

**Q.** Which melting point does the source give for `CCOC(=O)c1c(C(F)(F)F)nc(C(F)(F)F)c(C)c1OC(C)C` here?
**A.** 53 to 55 °C

**Q.** For `COc1cc(N)c(-c2ncn[nH]2)cc1OC`, which melting point is on record?
**A.** 205 to 210 °C

**Q.** With `S=C(Cc1ccccc1)n1c(-c2cscn2)nc2ccccc21` as the compound, how does the melting point read?
**A.** 122 to 123 °C

**Q.** For `CC1CN(S(=O)(=O)c2cccc(C(=O)O)c2)C(C)CN1S(=O)(=O)c1cccc(C(=O)O)c1` (configuration not stated), which melting point is on record?
**A.** 223 to 227 °C

**Q.** With `CCOC(=O)c1ccc(COc2ccc3c(c2)C(C)(C)CCC3(C)C)cc1` as the compound, how does the melting point read?
**A.** 76 to 77 °C

**Q.** For `O=C(CCCCCCCCCCCNC(=O)OCc1ccccc1)OC(=O)CCCCCCCCCCCNC(=O)OCc1ccccc1`, which melting point is on record?
**A.** 72 to 73 °C

**Q.** With `Nc1ncccc1OCc1ccccc1Cl` as the compound, how does the melting point read?
**A.** 95 to 100 °C

**Q.** Which melting point does the source give for `COc1cccc(OC)c1-c1cc(C(=O)NC2(C(=O)O)C3CC4CC(C3)CC2C4)nn1-c1ccc([N+](=O)[O-])cc1C` (configuration not stated) here?
**A.** 150 °C

**Q.** Which melting point does the source give for `COc1ccc(-c2nc3cnccc3[nH]2)cc1S(C)=O` (configuration not stated) here?
**A.** 227 to 229 °C

**Q.** For `O=Cc1nn(-c2ccc([N+](=O)[O-])cc2)c2c1CCC2`, which melting point is on record?
**A.** 209 to 210 °C

**Q.** With `COC(=O)Cn1nnnc1-c1cccc(C#N)c1` as the compound, how does the melting point read?
**A.** 67 to 69 °C

**Q.** Which melting point does the source give for `CCOC(=O)C1=C(C)NC(N)=C(C(=O)OCC)C1c1cccc(Cl)c1` (configuration not stated) here?
**A.** 157 to 159 °C

**Q.** For `OC1CSC(Oc2cccc(-c3ccc(F)cn3)c2)C(O)C1O` (configuration not stated), which melting point is on record?
**A.** 168 to 201 °C

**Q.** With `CC1(C)OC(c2ccc(S(C)(=O)=O)cc2)=C(c2ccc(S(C)(=O)=O)cc2)C1=O` as the compound, how does the melting point read?
**A.** 245 to 257 °C

**Q.** Which melting point does the source give for `CCCc1cc(OC)c(OC)cc1Cc1cnc(N)nc1N` here?
**A.** 166 to 167 °C

**Q.** For `CC1(O)CC(=O)OC(CCc2ccccc2OCc2ccccc2)C1Br` (configuration not stated), which melting point is on record?
**A.** 122 to 125 °C

**Q.** With `O=S(=O)(c1ccc(F)cc1)c1c[nH]c2ccc(Br)cc12` as the compound, how does the melting point read?
**A.** 163 to 164 °C

**Q.** With `Nc1cc(=O)nc(Nc2ccccc2)n1-c1ccccc1` as the compound, how does the melting point read?
**A.** 202 to 206 °C

**Q.** Which melting point does the source give for `COc1ccc2c(c1)Cc1c(-c3cccs3)n[nH]c1-2` here?
**A.** 212 to 214 °C

**Q.** With `Cc1ccc(-c2cc(C(O)C#Cc3ccc(C(=O)O)cc3)cc3c2C(C)(C)CCC3(C)C)cc1` (configuration not stated) as the compound, how does the melting point read?
**A.** 180 °C

**Q.** With `CC(C)(C)OC(=O)NC1CC1F` (configuration not stated) as the compound, how does the melting point read?
**A.** 58 to 60 °C

**Q.** Which melting point does the source give for `COc1ccc2c(c1)-c1c([nH]c3c1-c1cc(OC)ccc1CC3)CC2` here?
**A.** 206 °C

**Q.** With `CC(=O)SCC(Cc1ccccc1)C(=O)NN1CCCCCC1` (configuration not stated) as the compound, how does the melting point read?
**A.** 126 °C

**Q.** For `O=C(NC(=O)c1c(F)cccc1F)Nc1ccc(Cl)cn1`, which melting point is on record?
**A.** 226 to 229 °C

**Q.** Which melting point does the source give for `CCOC(=O)c1cnc2sc3c(n12)CCCCCC3` here?
**A.** 79 to 81 °C

**Q.** Which melting point does the source give for `Cc1ccc2nc(-c3ccccc3)cc(OCc3ccccc3)c2c1` here?
**A.** 139 °C

**Q.** With `CC(C)(C)OC(=O)N1C(CC2CCCCC2)C(C(O)CNS(=O)(=O)C(c2ccccc2)c2ccccc2)OC1(C)C` (configuration not stated) as the compound, how does the melting point read?
**A.** 58 to 65 °C

**Q.** With `COc1ccc(Cl)cc1-c1c(Sc2ccncc2)c(=O)[nH]c2ccc(C(F)(F)F)cc12` as the compound, how does the melting point read?
**A.** 257 to 260 °C

**Q.** Which melting point does the source give for `CC(=O)NC(CC(=O)c1ccccc1)OC(C)=O` (configuration not stated) here?
**A.** 82 to 83 °C

**Q.** With `CC(CNC(=O)N(CCN(C)C(=O)OC(C)(C)C)CCC12CC3CC(CC(C3)C1)C2)Cc1ccncc1` (single isomer, unassigned; (+)) as the compound, how does the melting point read?
**A.** 123 to 124 °C

**Q.** With `COc1ccc(C=NO)c(OC)c1C` as the compound, how does the melting point read?
**A.** 110 to 111 °C

**Q.** With `C#CCN(C)Cc1nc2ccc(OC(F)(F)F)cc2s1` as the compound, how does the melting point read?
**A.** 117 to 120 °C

**Q.** For `N#Cc1cc(F)cc(-c2cc(Br)c3c(c2)C2(CCCCC2)C(=O)N3)c1`, which melting point is on record?
**A.** 217 °C

**Q.** Which melting point does the source give for `CCCCCCCCCCC1CCCC1C(=O)Nc1c(OC)ccc2ncccc12` (configuration not stated) here?
**A.** 57 to 58 °C

**Q.** For `CCOC(=O)C1CC1C(=O)O` (configuration not stated), which melting point is on record?
**A.** 46 °C

**Q.** For `CCOC(=O)C(CCC#N)(C(=O)OCC)c1ncc(C)cc1[N+](=O)[O-]`, which melting point is on record?
**A.** 48 to 49 °C

**Q.** With `c1ccc(CC23CCN(CC2)CC3)cc1` as the compound, how does the melting point read?
**A.** 48 °C

**Q.** Which melting point does the source give for `CCCN(CCC)c1nccc2ccc(C(=O)N[C@@H](Cc3cc(F)cc(F)c3)[C@H](O)CNCc3cccc(CC)c3)cc12` here?
**A.** 142 to 151 °C

**Q.** For `O=C(C=Cc1cccnc1)C=Cc1cccnc1`, which melting point is on record?
**A.** 148 to 149 °C

**Q.** Which melting point does the source give for `O=C(NCc1cc(Br)cc2[nH]c(=O)c(=O)[nH]c12)C(O)c1ccccc1` (configuration not stated) here?
**A.** > 280 °C

**Q.** For `Cc1ccc(C2OCCn3ccc(=O)c(O)c32)cc1` (configuration not stated), which melting point is on record?
**A.** 210 to 218 °C

**Q.** For `Cc1c(C(=O)Nc2ccc(N3CCC(N4CCOCC4)CC3)c([N+](=O)[O-])c2)cnn1-c1ccc(C(F)(F)F)cc1`, which melting point is on record?
**A.** 225 to 230 °C

**Q.** For `N#CC(=C1C=CC(=NO[Si](c2ccccc2)(c2ccccc2)c2ccccc2)C=C1)c1ccccc1`, which melting point is on record?
**A.** 161 to 165 °C

**Q.** For `CCC(NS(C)(=O)=O)P(=O)(Oc1ccccc1)Oc1ccccc1` (configuration not stated), which melting point is on record?
**A.** 136 to 139 °C

**Q.** For `O=S1(=O)c2cccc3cccc(c23)N1CCCCN1CC=C(c2ccc(Cl)cc2)CC1`, which melting point is on record?
**A.** 12 °C

**Q.** For `NS(=O)(=O)c1ccc(NN=C2C(=O)Nc3ccc(C(=O)NCc4ccncc4)cc32)cc1`, which melting point is on record?
**A.** 211 to 215 °C

**Q.** With `Oc1ccc(Oc2cncnc2)cc1` as the compound, how does the melting point read?
**A.** 158 °C

**Q.** For `Nc1cc(S)c(Cl)cc1F`, which melting point is on record?
**A.** 64.5 to 66 °C

**Q.** Which melting point does the source give for `CCC(CC)c1ccc(Cl)c2nc3n(c12)CCCCN3c1cccc2c1OC(F)(F)O2` here?
**A.** 156 to 158 °C

**Q.** With `O=C(NCCN1CCN(c2cccc3c2OCC(CO)O3)CC1)c1ccc(F)cc1` (configuration not stated) as the compound, how does the melting point read?
**A.** 183 to 185 °C

**Q.** With `CC1=CC(C)(C)N2CCCc3c(O)ccc1c32` as the compound, how does the melting point read?
**A.** 125 to 126 °C

**Q.** With `Brc1cccc(C2Cc3cnc(Nc4ccc(CCN5CCN(c6ccccc6)CC5)cc4)nc3-c3ccccc32)c1` (configuration not stated) as the compound, how does the melting point read?
**A.** 113 to 115 °C

**Q.** Which melting point does the source give for `O=C(O)c1cccc(-n2c(-c3ccccc3)cc3c2CCCC3)c1` here?
**A.** 191 to 193 °C

**Q.** For `CC(C)NC(=O)c1c[nH]c2ncc(-c3nn(CCCN(C)C)c4cc(Cl)cc(F)c34)nc12`, which melting point is on record?
**A.** 249 to 255 °C

**Q.** With `COC(=O)Nc1ccc(OCc2nc3ccccc3s2)cc1` as the compound, how does the melting point read?
**A.** 142 to 144 °C

**Q.** For `Nc1ccc(-c2nnsc2-c2ccc(N)cc2)cc1`, which melting point is on record?
**A.** 236 °C

**Q.** With `CN1CCN(C2=Nc3cc(F)ccc3N3CCc4cccc2c43)CC1` as the compound, how does the melting point read?
**A.** 151 to 153 °C

**Q.** Which melting point does the source give for `O=C(Nc1ccc(N2CC3CC3C2)nc1)c1cc2cc(F)cnc2n1Cc1cccc(F)c1` (configuration not stated) here?
**A.** 222 to 224 °C

**Q.** For `Clc1ccc(CS[C@H]2CO[C@H](c3ccccc3)OC2)cc1`, which melting point is on record?
**A.** 95 to 99 °C

**Q.** Which melting point does the source give for `Cn1cnc2nc(C=Cc3ccc(Cl)cc3)nn2c1=S` here?
**A.** > 300 °C

**Q.** For `COC(=O)[C@H](Cc1ccc(CC(=O)O)cc1)NC(=O)OC(C)(C)C`, which melting point is on record?
**A.** 141 to 143 °C

**Q.** For `Cc1cc(N)c(C)c(Cl)c1Oc1ccc(C(=O)c2ccc(Cl)cc2)cc1`, which melting point is on record?
**A.** 113 to 122 °C

**Q.** Which melting point does the source give for `C=C(CN(C)C)c1ccc(NC(=O)NC)cc1` here?
**A.** 123 to 124 °C

**Q.** For `CN1C(=O)N(CBr)C(=O)C1(C)C`, which melting point is on record?
**A.** 86 to 88 °C

**Q.** Which melting point does the source give for `COC(=O)c1cnc(N)cn1` here?
**A.** 229 to 231 °C

**Q.** Which melting point does the source give for `O=CNc1c2c(nc3ccccc13)CCc1cnn(-c3ccccc3)c1-2` here?
**A.** > 250 °C

**Q.** For `CC(=O)OCC(OC(C)=O)C1OC(OC(C)=O)(C(=O)O)CC(OC(C)=O)C1OC(C)=O` (configuration not stated), which melting point is on record?
**A.** 132 to 133 °C
